According to patent publication US5620864A, “Acceptor for fucosyl transferase” (Health Research, Inc., priority 1992, dated 1997):
Values joined by “and” are separate entries in the source; they are usually repeats but may differ in a detail not shown here. Equal values may be shown once.

Key:
[1] = biological target: T1, serum α1,3-L-fucosyltransferase (Homo sapiens, UniProt P51993); assay: Assay of α1,3-fucosyltransferase with various synthetic acceptors, ovarian cancer sera as enzyme source; format: biochemical; details: for Relative Percent: 2'-methyl LacNAc = 100; for [14C] Fucose Incorporated (CPM): acceptor 0.3 mM, 37° C. 18 h
T1 construct: Sera were collected from healthy females and ovarian cancer patients; from tissue; host or cells: blood serum of ovarian cancer patients and healthy females
T1 sequence (P51993 35-359 limits assumed): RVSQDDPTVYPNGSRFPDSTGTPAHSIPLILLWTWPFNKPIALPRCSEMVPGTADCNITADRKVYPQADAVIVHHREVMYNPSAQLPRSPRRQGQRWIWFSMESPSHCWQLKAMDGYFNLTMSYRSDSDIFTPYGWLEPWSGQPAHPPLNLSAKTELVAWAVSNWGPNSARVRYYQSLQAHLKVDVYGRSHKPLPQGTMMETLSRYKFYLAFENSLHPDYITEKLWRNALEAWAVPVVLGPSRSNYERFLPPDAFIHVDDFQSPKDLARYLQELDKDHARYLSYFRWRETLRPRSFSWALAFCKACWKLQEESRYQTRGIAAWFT
Description: Sera were collected from healthy females and ovarian cancer patients admitted to Roswell Park Cancer Institute in Buffalo, N.Y., USA. Ovarian tumor tissues were obtained during surgical procedures from patients with ovarian cancer. Both sera and tissues were stored frozen at -70° C. until use.
(§1) An incubation mixture contained 50 mM HEPES-NaOH, pH 7.5, 5 mM MnC12, 7 mM ATP, 3 mM NaN3, the acceptor 0.3 mM (for serum enzyme) or 3.0 mM (for tumor enzyme), 0.125 μCi of GDP-[U-^14 C] Fuc (Sp. Act. 216 mCi/mmol) and enzyme in a total volume of 0.10 ml; the control incubation mixture had everything except the acceptor. At the end of incubation at 37° C. for 18 h, the mixture was diluted with 1 ml water and passed through Dowex-1-C1 column (1 ml in a Pasteur pipet). The column was washed twice with 1 ml water; the breakthrough and wash, which contained the [^14 C] fucosylated neutral acceptor, were collected together in a scintillation vial and counted for radioactivity using the scintillation coctail 3a70 (Research Products International, Mount Prospects, Ill.) and Beckman LS9000. The Dowex column was then eluted successively with 3 ml each of 0.1M and 0.2M NaCl; these eluates which contained the [^14 C] fucosylated sulfated acceptors, were counted for radioactivity as before. Corrections were made by subtracting the radioactivity in the water and NaCl eluates of the control incubation mixture from the corresponding test fractions. The duplicate runs of samples gave almost identical values, the difference being <5%.
The activity of serum α1,3-fucosyltransferase was measured with the specific substrate 2'-methyl LacNAc and compared with the ability of several other synthetic substrates to act as an acceptor of fucose.
When the structure of the acceptor 2'-methyl LacNAc was modified by replacing the methyl group with sulfate group in C-2', 3', 6' or 6 position and tested their ability to act as the acceptor of fucose, the following novel findings emerged. […] The β-benzyl glycoside of 3' sulfo LacNAc was quite active (168.4%) but less than the parent compound.

[2] = system: α1,3-L-fucosyltransferase of the soluble fraction of human ovarian tumor; assay: Assay of α1,3-fucosyltransferase with synthetic acceptors, partially purified enzyme of ovarian tumor soluble fraction; format: biochemical; details: for [14C] Fucose Incorporated (CPM): acceptor 3.0 mM, 37° C. 18 h
Description: as §1
As shown in the scheme set forth in FIG. 2, the α-L-fucosidase-free extract of the tissue (40 g), after concentration by 80% (NH4)2 SO4 precipitation was fractionated on bovine IgG glycopep-Sepharose in batches of 25 ml. After washing the column with the equilibration buffer, the bound enzyme was eluted with 1 M NaCl in the same buffer. The protein positive fractions were pooled and processed as shown in the scheme 2.0 ml of the above preparation was loaded on a Sephacryl S-200 column (Superfine:2.6 cm×88.0 cm) equilibrated at 4° C. with 50 mM Tris-HC1, pH 7.0 containing 0.15M NaCl and 0.1% Triton X-100 and eluted with the same buffer. Fractions of 3.0 ml were collected. The fucosyltransferase activity was located in the effluent fractions, by assaying first every 5th fraction and then obtaining the activity profile by assaying the alternate fractions in that range, using 2'-fucosyl LacNAc as the acceptor. […] Its elution position, which is slightly later than BSA, run separately on the same column, indicates its molecular weight as <67,000 daltons. […] The enzyme has been purified 66 fold over the soluble extract with a recovery of 6.2%. The enzyme at this stage lost its activity either kept frozen at -20° C. or left at 4° C. for more than a week. However, the enzyme at the end of the previous step was fairly stable for at least two months at 4° C. So this preparation of enzyme was used in acceptor ability comparison studies.
When α1,3-fucosyltransferase activity of the partially purified enzyme preparation from the soluble portion of ovarian tumor was measured and compared with the activity of other acceptors, the following results were obtained. 2'-methyl LacNAc, LacNAc and Galβ1, 3GlcNAc were respectively 100.0%, 60.6% and 565.5% active, indicating the presence of both α1,3 and α1,4 fucosyltransferase activities in this preparation.

[3] = system: α1,3-L-fucosyltransferase of the particulate fraction of ovarian tumor; assay: Assay of α1,3-fucosyltransferase with synthetic acceptors, ovarian tumor particulate fraction; format: biochemical, human; details: for Relative Percent: 2'-methyl LacNAc = 100; for [14C] Fucose Incorporated (CPM): acceptor 3.0 mM, 37° C. 18 h
Description: FIG. 2 The scheme for the preparation of the particulate and soluble fractions of human ovarian tumor.
as §1
This finding is quite different from what we found with the soluble fraction, where α1,4-fucosyltransferase activity seems to be greater than α1,3-fucosyltransferase activity. […] The different nature of the above enzymes was made further clear, when sulfated derivatives of LacNAc was tested as acceptors.

Compound | Relative Percent [1] | [14C] Fucose Incorporated (CPM) [1] | Relative Percent ([2]; 2'-methyl LacNAc = 100) | Relative Percent ([2]; 2'-methyl LacNAc = 100, listed as β-benzyl glycoside of Galβ1, 3 Glc NAc) | Relative Percent ([2]; 2'-methyl LacNAc = 100, listed as β-benzyl glycoside of Galβ1,3GlcNAc) | [14C] Fucose Incorporated (CPM) [2] | Relative Percent [3] | [14C] Fucose Incorporated (CPM) [3] | Relative Percent ([2]; 2'-methyl LacNAc = 100, listed as 6-sulfo LacNAc) | Relative Percent ([2]; 2'-methyl LacNAc = 100, listed as 6' sulfo LacNAc) | Relative Percent ([2]; 2'-methyl LacNAc = 100, listed as 6-'-sulfo LacNAc) | Relative Percent ([2]; 2'-methyl LacNAc = 100, listed as 2' sulfo LacNAc) | Relative Percent ([2]; 2'-methyl LacNAc = 100, listed as 2' sulfo-LacNAc)
CC(=O)N[C@H]1[C@H](OCc2ccccc2)O[C@H](CO)[C@@H](O)[C@@H]1O[C@@H]1O[C@H](CO)[C@H](O)[C@H](O)[C@H]1O [Ga1β1,3G1cNAcβ-O--Bn] | 21.7% | 376 CPM | 1004.5% | 1005% | 1004.5% | 74260 CPM | 37.8% | 18221 CPM |  |  |  |  | 
CC(=O)N[C@H]1C(O)O[C@H](COS(=O)(=O)O)[C@@H](O[C@@H]2O[C@H](CO)[C@H](O)[C@H](O)[C@H]2O)[C@@H]1O (stereo partly drawn) [6-Sulfo LacNAc, β-D-GALACTOPYRANOSYL-(1→4)-SODIUM 2-ACETAMIDO-2-DEOXY-D-GLUCOPYRANOSE 6-SULFATE] | 172.4% | 2983 CPM | 272.6% |  |  | 20148 CPM | 53.3% | 25740 CPM | 272% and 272.6% |  |  |  | 
CC(=O)N[C@H]1[C@H](O[C@H]2[C@@H](O)[C@@H](CO)O[C@@H](Oc3ccc([N+](=O)[O-])cc3)[C@@H]2O)O[C@H](CO)[C@@H](O[C@@H]2O[C@H](CO)[C@H](O)[C@H](O)[C@H]2O)[C@@H]1O [LacNAcβ1,3Ga1β-O--PNP] | 166.8% | 2886 CPM | 87.0% |  |  | 6432 CPM | 70.0% | 33759 CPM |  |  |  |  | 
CC(=O)N[C@H]1C(O)O[C@H](CO)[C@@H](O[C@@H]2O[C@H](COS(=O)(=O)O)[C@H](O)[C@H](O)[C@H]2O)[C@@H]1O (stereo partly drawn) [6'-Sulfo LacNAc] | 36.2% | 626 CPM | 5.3% |  |  | 395 CPM | 42.6% | 20543 CPM |  | 5% | 5.3% |  | 
CC(=O)N[C@H]1C(O)O[C@H](CO)[C@@H](O[C@@H]2O[C@H](CO)[C@H](O)[C@H](O)[C@H]2O[C@@H]2O[C@@H](C)[C@@H](O)[C@@H](O)[C@@H]2O)[C@@H]1O (stereo partly drawn) [2'-Fucosyl LacNAc, 2'-Fucosyl N-acetyllactosamine] | 253.1% | 4379 CPM | 436.1% |  |  | 32235 CPM | 144.7% | 69824 CPM |  |  |  |  | 
CC(=O)N[C@H]1C(O)O[C@H](CO)[C@@H](O[C@@H]2O[C@H](CO)[C@H](O)[C@H](O)[C@H]2OS(=O)(=O)O)[C@@H]1O (stereo partly drawn) [2'-Sulfo LacNAc] | 22.0% | 380 CPM | 32.7% |  |  | 2414 CPM | 9.8% | 4718 CPM |  |  |  | 33% | 32.7%
CC(=O)N[C@H]1[C@H](OCc2ccccc2)O[C@H](CO)[C@@H](O[C@@H]2O[C@H](CO)[C@H](O)[C@H](O)[C@H]2O)[C@@H]1O [LacNAcβ-O--Bn] | 358.8% | 6207 CPM | 111.6% |  |  | 8249 CPM | 132.9% | 64223 CPM |  |  |  |  | 
CO[C@@H]1O[C@H](CO)[C@H](O)[C@H](O[C@@H]2O[C@H](CO)[C@@H](O)[C@H](O[C@@H]3O[C@H](CO)[C@H](O)[C@H](O)[C@H]3O)[C@H]2NC(C)=O)[C@H]1O [Ga1β1,3G1cNAcβ1,3Ga1β-O--Me] | 42.7% | 739 CPM |  |  |  |  | 42.6% | 20559 CPM |  |  |  |  | 
CC(=O)N[C@H]1[C@H](OCc2ccccc2)O[C@H](CO)[C@@H](O[C@@H]2O[C@H](CO)[C@H](O)[C@H](O)[C@H]2O[C@@H]2O[C@@H](C)[C@@H](O)[C@@H](O)[C@@H]2O)[C@@H]1O [2'-Fucosyl LacNAcβ-O--Bn] | 425.0% | 7352 CPM | 373.0% |  |  | 27571 CPM | 174.0% | 83975 CPM |  |  |  |  | 
CC(=O)N[C@H]1C(O)O[C@H](CO)[C@@H](O[C@@H]2O[C@H](CO)[C@H](O)[C@H](O)[C@H]2O)[C@@H]1O[C@@H]1O[C@@H](C)[C@@H](O)[C@@H](O)[C@@H]1O (stereo partly drawn) [3-Fucosyl LacNAc] | 4.7% | 82 CPM | 1.9% |  |  | 144 CPM | 3.7% | 1801 CPM |  |  |  |  | 
CC(=O)N[C@H]1[C@@H](Oc2ccccc2[N+](=O)[O-])O[C@H](CO[C@@H]2O[C@H](CO)[C@@H](O)[C@H](O)[C@H]2NC(C)=O)[C@H](O)[C@@H]1O [G1cNAcβ1,6Ga1NAcα-O--ONp] | 9.5% | 164 CPM | 0% |  |  | 0 CPM |  |  |  |  |  |  | 
CC(=O)N[C@H]1[C@H](OCc2ccccc2)O[C@H](CO)[C@@H](O[C@@H]2O[C@H](CO)[C@H](O)[C@H](OS(=O)(=O)O)[C@H]2O)[C@@H]1O [3'-Sulfo LacNAcβ-O--Bn, Benzyl 4-0-(sodium β-D-Galactopyranosyl 3-Sulfate)-2-acetamido-2-deoxy-β-D-Glucopyranoside] | 168.4% | 2913 CPM | 183.8% |  |  | 13585 CPM | 33.3% | 16062 CPM |  |  |  |  | 
CC(=O)N[C@H]1C(O)O[C@H](CO)[C@@H](O[C@@H]2O[C@H](CO)[C@H](O)[C@H](O)[C@H]2O)[C@@H]1O (stereo partly drawn) [LacNAc] | 93.4% | 1615 CPM | 60.6% |  |  | 4480 CPM | 61.8% | 29842 CPM |  |  |  |  | 
